Measured values: patent EP0429304A2, “Pyridone-carboxylic acid derivatives and their use as veterinary medicines” (SHIONOGI SEIYAKU KABUSHIKI KAISHA trading under the name of …, priority 1989, dated 1991)
Like-named read-outs stand apart in the source and are kept apart here.

Legend:
[1] = system: TS-resistant strain of MG; assay type: in vivo, chicken; conditions: for antimicrobial activity compared with ERFX: in vivo, po; for Infectious index Left air sack + / Infectious index Left air sack ++ / Infectious index Left air sack +++ / Infectious index Left air sack - / Infectious index Right air sack + / Infectious index Right air sack ++ / Infectious index Right air sack +++ / Infectious index Right air sack -: count of fowl; for Infectious index Left air sack + / Infectious index Left air sack ++ / Infectious index Left air sack +++ / Infectious index Left air sack - / Infectious index Right air sack + / Infectious index Right air sack ++ / Infectious index Right air sack +++ / Infectious index Right air sack - / Number of fowl having air sack lesions / Number of infected fowl/Number of fowl tested: 9-days chicken; for Infectious index Left air sack + / Infectious index Left air sack ++ / Infectious index Left air sack +++ / Infectious index Left air sack - / Infectious index Right air sack + / Infectious index Right air sack ++ / Infectious index Right air sack +++ / Infectious index Right air sack - / Number of fowl having air sack lesions: 1.7 x 10³ CFU/fowl; for Number of infected fowl/Number of fowl tested: 3.5 x 10³ CFU/fowl
[2] = system: Mycoplasma gallisepticum (MG) S6; experiment: In vitro sensitivity test (liquid dilution method); assay type: cell-based; conditions: 37°C, 7 days
Method: (§1) Survey of the sensitivity of the compound (I) to various strains of microorganisms was performed by a liquid dilution method […] an agar dilution method, in which the bacteria used were of animal origin and included the following strains (15 strains out of 11 bacteria): Chicken-origin strain: Mycoplasma gallisepticum (MG), Mycoplasma synoviae (MS), Hemophilus paragallinarum (H.pg) and Escherichia coli (E.coli); Pig-origin strain: Mycoplasma hyopneumoniae (Mh), Hemophilus pleuropneumonia (H.pp) and Bordetella bronchiseptica (B.br); Fish-origin strain: Pasteurella piscicida (P.pis) and Streptococcus sp (Str.sp); others: Escherichia coli (E. coli), Salmonella typhimurium (S.typhi) and Staphylococcus aureus (S.au).
(§2) Of these bacteria, the strains belonging to MG, MS and Mh were cultured at 37°C for 7 days by a liquid dilution method, of which the culture medium comprised: 12 % horse-serum added "PPLO" (agar manufactured by Difco) medium for MG; 12 % pig-serum, 0.01 % βNAD (nicotinamide adenine dinucleotide) added Frey medium for MS; 0.5 % lactoalbumin added Hank's solution, 10 % horse-serum, 0.5 % yeast extract (25 %) for Mh, and the agar dilution method was applied to the strains belonging to H.pg, H.pp, S.typhi, E.coli, S.au and B.br. Specifically, the H.pg strain was cultured in a 5 % chicken-serum added chicken bouillon medium and the H.pp strain was cultured in a heart infusion agar added with 10 % sheep defibered blood and 0.05 % βNAD. In case of the H.pg and P.pp strains, observation was made after cultivation at 37°C for 20 hours under 10 % CO₂. Mueller Hinton agar (Difco) was used for the strains belonging to S.typhi, E.coli, S.au and B.br, and observation was made after cultivation at 37°C for 20 to 24 hours. P.pis and Str.sp, both being of fish-origin, were respectively cultured at 25°C for 40 to 48 hours in a 1.5 % NaCl added heart infusion agar and in a sensitive disk medium.

[3] = system: Mycoplasma hyopneumoniae (Mh) ST-11; experiment: In vitro sensitivity test (liquid dilution method); assay type: cell-based; conditions: 37°C, 7 days
Method: as §1, §2

[4] = system: Pasteurella piscicida (P.pis) No. 2; experiment: In vitro sensitivity test; assay type: cell-based; conditions: 25°C, 40 to 48 hours
Method: as §1, §2

[5] = system: Streptococcus sp (Str.sp) SNO6119; experiment: In vitro sensitivity test; assay type: cell-based; conditions: 25°C, 40 to 48 hours
Method: as §1, §2

[6] = system: Salmonella typhimurium (S.typhi) 13311; experiment: In vitro sensitivity test (agar dilution method); assay type: cell-based; conditions: 37°C, 20 to 24 hours
Method: as §1, §2

[7] = system: Staphylococcus aureus (S.au) 209P; experiment: In vitro sensitivity test (agar dilution method); assay type: cell-based; conditions: 37°C, 20 to 24 hours
Method: as §1, §2

[8] = system: Escherichia coli (E.coli) JC-2; experiment: In vitro sensitivity test (agar dilution method); assay type: cell-based; conditions: 37°C, 20 to 24 hours
Method: as §1, §2

[9] = system: Hemophilus pleuropneumonia (H.pp) M-1; experiment: In vitro sensitivity test (agar dilution method); assay type: cell-based; conditions: 37°C, 20 hours, 10 % CO₂
Method: as §1, §2

[10] = system: Bordetella bronchiseptica (B.br) ABU-1; experiment: In vitro sensitivity test (agar dilution method); assay type: cell-based; conditions: 37°C, 20 to 24 hours
Method: as §1, §2

TS-resistant MG = experiment: Experimental MG infection to chicken, through bait; assay type: in vivo; conditions: 9-days chicken, 6.6 x 10³ CFU/fowl, dissection 6th day after inoculation

## Cl.N[C@H]1CC[C@H]2CN(c3c(F)cc4c(=O)c(C(=O)O)cn(C5CC5)c4c3F)C[C@H]21 (relative stereo) [I-12]
[1]
  antimicrobial activity compared with ERFX: two times more effective than ERFX
[1]; oral administration, MG-infected chicken
  complete inihibition of the lesions in air sac at a concentration of: about 3.13 mg/kg
[2]
  In vitro Sensitivity Test MG S6: 0.00313 µg/mL
[3]
  In vitro Sensitivity Test Mh ST-11: <0.00625 µg/mL
[4]
  In vitro Sensitivity Test P.pis No. 2: 0.39 µg/mL
[5]
  In vitro Sensitivity Test Str.sp SNO6119: 0.78 µg/mL
[6]
  In vitro Sensitivity Test S.typhi 13311: 0.1 µg/mL
[7]
  In vitro Sensitivity Test S.au 209P: 0.1 µg/mL
[8]
  In vitro Sensitivity Test E.coli JC-2: 0.1 µg/mL
[9]
  In vitro Sensitivity Test H.pp M-1: 0.2 µg/mL
[10]
  In vitro Sensitivity Test B.br ABU-1: 0.39 µg/mL

## O=C(O)c1cn(C2CC2)c2c(F)c(N3CC4CCCC(=O)C4C3)c(F)cc2c1=O (stereo not shown) [I-4]
[1]; oral 6.25 mg/kg
  Infectious index Left air sack +: 1
  Infectious index Left air sack ++: 0
  Infectious index Left air sack +++: 0
  Infectious index Left air sack -: 3
  Infectious index Right air sack +: 1
  Infectious index Right air sack ++: 1
  Infectious index Right air sack +++: 0
  Infectious index Right air sack -: 2
  Number of fowl having air sack lesions: 2
[1]; oral 12.5 mg/kg
  Infectious index Left air sack +: 0
  Infectious index Left air sack ++: 0
  Infectious index Left air sack +++: 0
  Infectious index Left air sack -: 5
  Infectious index Right air sack +: 0
  Infectious index Right air sack ++: 0
  Infectious index Right air sack +++: 0
  Infectious index Right air sack -: 5
  Number of fowl having air sack lesions: 0
[1]; oral 25.0 mg/kg
  Infectious index Left air sack +: 0
  Infectious index Left air sack ++: 0
  Infectious index Left air sack +++: 0
  Infectious index Left air sack -: 5
  Infectious index Right air sack +: 0
  Infectious index Right air sack ++: 0
  Infectious index Right air sack +++: 0
  Infectious index Right air sack -: 5
  Number of fowl having air sack lesions: 0
[2]
  In vitro Sensitivity Test MG S6: 0.05 µg/mL
[3]
  In vitro Sensitivity Test Mh ST-11: ≦0.025 µg/ml
[4]
  In vitro Sensitivity Test P.pis No. 2: 6.25 µg/mL
[5]
  In vitro Sensitivity Test Str.sp SNO6119: 0.39 µg/mL
[6]
  In vitro Sensitivity Test S.typhi 13311: 0.39 µg/mL
[7]
  In vitro Sensitivity Test S.au 209P: 0.05 µg/mL
[8]
  In vitro Sensitivity Test E.coli JC-2: 0.2 µg/mL
[9]
  In vitro Sensitivity Test H.pp M-1: 0.2 µg/mL

## CCn1cc(C(=O)O)c(=O)c2cc(F)c(N3C[C@H]4CCC[C@@]4(CNC)C3)c(F)c21.Cl (relative stereo) [I-19, 7-[(1R*,5S*)-1-methylaminomethyl-3-azabicyclo[3.3.0]octan-3-yl]-1-ethyl-6,8-difluoro-1,4-dihydro-4-oxo-3-quinolinecarboxylic acid hydrochloride]
[1]; oral 1.56 mg/kg
  Number of infected fowl/Number of fowl tested: 3/5
[1]; oral 3.13 mg/kg
  Number of infected fowl/Number of fowl tested: 3/5
[1]; oral 6.25 mg/kg
  Number of infected fowl/Number of fowl tested: 1/5
[2]
  In vitro Sensitivity Test MG S6: 0.00625 µg/mL
[3]
  In vitro Sensitivity Test Mh ST-11: 0.39 µg/mL
[4]
  In vitro Sensitivity Test P.pis No. 2: 1.56 µg/mL
[5]
  In vitro Sensitivity Test Str.sp SNO6119: 1.56 µg/mL
TS-resistant MG; bait 31.3 ppm/Day
  Number of infected fowl/Number of fowl tested: 1/7
TS-resistant MG; bait 62.5 ppm/Day
  Number of infected fowl/Number of fowl tested: 0/7
TS-resistant MG; bait 125 ppm/Day
  Number of infected fowl/Number of fowl tested: 0/7
[6]
  In vitro Sensitivity Test S.typhi 13311: 0.78 µg/mL
[7]
  In vitro Sensitivity Test S.au 209P: 0.05 µg/mL
[8]
  In vitro Sensitivity Test E.coli JC-2: 0.39 µg/mL
[9]
  In vitro Sensitivity Test H.pp M-1: 0.78 µg/mL

## CNC[C@@]12CCC[C@@H]1CN(c1c(F)cc3c(=O)c(C(=O)O)cn(C4CC4)c3c1Cl)C2.Cl (relative stereo) [I-11, 7-[(1R*,5S*)-1-methylaminomethyl-3-azabicyclo[3.3.0]octan-3-yl]-1-cyclopropyl-8-chloro-6-fluoro-1,4-dihydro-4-oxo-3-quinolinecarboxylic acid hydrochloride]
[1]
  antimicrobial activity compared with ERFX: nearly equal potency to ERFX
